Measured values published in ChEMBL document CHEMBL1201862, “PubChem BioAssay data set” (2004).
Activity calls are given as the source filed them.

Assays:
[1] = target: T1, Carboxy-terminal domain RNA polymerase II polypeptide A small phosphatase 1 (Homo sapiens, UniProt Q9GZU7); experiment: CTDSP1 inhibitors, concentration-response, biochemical, absorbance readout, ultra-high-throughput screen actives (AID 540297); format: functional
T1 sequence (Q9GZU7 whole entry): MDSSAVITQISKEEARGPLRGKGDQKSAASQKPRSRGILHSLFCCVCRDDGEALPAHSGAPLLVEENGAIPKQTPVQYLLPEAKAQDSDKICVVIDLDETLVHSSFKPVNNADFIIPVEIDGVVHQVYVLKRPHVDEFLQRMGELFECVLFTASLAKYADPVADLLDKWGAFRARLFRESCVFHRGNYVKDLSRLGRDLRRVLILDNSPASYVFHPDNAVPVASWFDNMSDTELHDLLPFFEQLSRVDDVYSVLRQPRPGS

Caspase-6 = target: T2, Caspase-6 (Homo sapiens, UniProt P55212); experiment: inhibition of CASP6 peptide cleavage – biochemical, VEID-R110 fluorescence, cherry-pick, dose response (AID 720632)
T2 sequence (P55212 whole entry): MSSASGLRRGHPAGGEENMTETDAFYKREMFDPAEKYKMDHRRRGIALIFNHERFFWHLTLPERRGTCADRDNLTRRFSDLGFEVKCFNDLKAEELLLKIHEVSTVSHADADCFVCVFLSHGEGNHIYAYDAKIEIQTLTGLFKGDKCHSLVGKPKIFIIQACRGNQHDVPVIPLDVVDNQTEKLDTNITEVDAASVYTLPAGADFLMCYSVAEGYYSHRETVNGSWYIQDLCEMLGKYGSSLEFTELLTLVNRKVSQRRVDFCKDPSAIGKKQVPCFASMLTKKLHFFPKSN

[2] = M. tuberculosis H37Rv growth inhibitors, H37Rv strain (AID 1626); format: functional
[3] = target: T3, Replicative DNA helicase DnaB (Mycobacterium tuberculosis, UniProt P9WMR3); experiment: DnaB intein splicing inhibitors, dose response, biochemical, cell-free fluorescence (AID 449749); format: functional
T3 sequence (P9WMR3 whole entry): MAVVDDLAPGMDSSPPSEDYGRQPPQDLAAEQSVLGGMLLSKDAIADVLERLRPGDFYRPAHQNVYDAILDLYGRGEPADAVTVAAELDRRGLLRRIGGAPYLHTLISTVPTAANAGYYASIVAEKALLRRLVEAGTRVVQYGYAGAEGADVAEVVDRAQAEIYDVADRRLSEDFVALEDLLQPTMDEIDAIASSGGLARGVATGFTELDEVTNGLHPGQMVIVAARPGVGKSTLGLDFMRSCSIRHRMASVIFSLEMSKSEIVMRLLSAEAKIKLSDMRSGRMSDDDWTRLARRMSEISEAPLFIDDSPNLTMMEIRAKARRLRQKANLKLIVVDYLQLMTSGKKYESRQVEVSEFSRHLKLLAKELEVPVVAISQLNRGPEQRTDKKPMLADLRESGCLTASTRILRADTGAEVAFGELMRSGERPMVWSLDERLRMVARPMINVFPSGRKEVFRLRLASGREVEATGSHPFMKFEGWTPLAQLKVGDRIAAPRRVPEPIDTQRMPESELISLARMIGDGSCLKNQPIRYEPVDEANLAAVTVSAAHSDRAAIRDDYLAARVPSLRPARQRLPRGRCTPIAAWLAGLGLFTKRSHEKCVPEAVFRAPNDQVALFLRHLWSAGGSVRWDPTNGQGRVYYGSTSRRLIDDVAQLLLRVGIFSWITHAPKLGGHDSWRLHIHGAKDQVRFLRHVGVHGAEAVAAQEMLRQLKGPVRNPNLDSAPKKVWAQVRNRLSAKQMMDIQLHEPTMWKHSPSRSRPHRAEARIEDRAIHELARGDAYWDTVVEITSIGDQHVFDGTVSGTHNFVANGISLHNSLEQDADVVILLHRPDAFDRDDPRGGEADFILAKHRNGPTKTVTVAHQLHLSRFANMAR

Protein RecA = target: T4, Protein RecA (Mycobacterium tuberculosis, UniProt P9WHJ3); experiment: Fluorescence Cell-Free Homogeneous Dose Retest to Identify Inhibitors of RecA-Intein Splicing Activity. [Related pubchem assays (depositor defined):AID2097, AID2223, AID489010, AID492950]; format: functional
T4 sequence (P9WHJ3 whole entry): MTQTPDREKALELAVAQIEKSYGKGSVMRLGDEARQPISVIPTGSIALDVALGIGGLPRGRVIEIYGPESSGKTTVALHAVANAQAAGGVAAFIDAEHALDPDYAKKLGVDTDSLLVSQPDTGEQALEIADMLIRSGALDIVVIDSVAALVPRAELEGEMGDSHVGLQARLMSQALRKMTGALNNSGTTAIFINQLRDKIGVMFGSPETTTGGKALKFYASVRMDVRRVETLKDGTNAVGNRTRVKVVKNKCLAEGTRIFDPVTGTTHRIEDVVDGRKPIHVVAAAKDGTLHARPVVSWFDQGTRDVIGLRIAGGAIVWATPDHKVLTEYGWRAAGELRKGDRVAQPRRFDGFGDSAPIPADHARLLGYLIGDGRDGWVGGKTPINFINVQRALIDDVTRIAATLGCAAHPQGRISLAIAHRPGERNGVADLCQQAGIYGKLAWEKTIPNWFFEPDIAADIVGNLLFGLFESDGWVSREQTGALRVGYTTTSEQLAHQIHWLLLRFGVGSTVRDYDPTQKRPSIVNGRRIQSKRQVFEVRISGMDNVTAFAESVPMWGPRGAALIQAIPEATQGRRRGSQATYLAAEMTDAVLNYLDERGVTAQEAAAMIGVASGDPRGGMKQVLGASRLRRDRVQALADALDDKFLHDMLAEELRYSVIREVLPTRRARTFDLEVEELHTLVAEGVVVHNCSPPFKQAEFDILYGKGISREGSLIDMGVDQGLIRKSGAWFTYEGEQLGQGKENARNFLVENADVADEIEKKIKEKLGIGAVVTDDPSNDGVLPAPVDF

[4] = target: T5, Corticotropin-releasing factor receptor 2/Corticotropin-releasing factor-binding protein (Homo sapiens, UniProt P24387+Q13324); experiment: activators of CRF receptor 2 with binding protein – uHTS hits, confirmation (AID 602473); format: functional; conditions: read-out: EC50_Mean
T5 sequence (Q13324 whole entry): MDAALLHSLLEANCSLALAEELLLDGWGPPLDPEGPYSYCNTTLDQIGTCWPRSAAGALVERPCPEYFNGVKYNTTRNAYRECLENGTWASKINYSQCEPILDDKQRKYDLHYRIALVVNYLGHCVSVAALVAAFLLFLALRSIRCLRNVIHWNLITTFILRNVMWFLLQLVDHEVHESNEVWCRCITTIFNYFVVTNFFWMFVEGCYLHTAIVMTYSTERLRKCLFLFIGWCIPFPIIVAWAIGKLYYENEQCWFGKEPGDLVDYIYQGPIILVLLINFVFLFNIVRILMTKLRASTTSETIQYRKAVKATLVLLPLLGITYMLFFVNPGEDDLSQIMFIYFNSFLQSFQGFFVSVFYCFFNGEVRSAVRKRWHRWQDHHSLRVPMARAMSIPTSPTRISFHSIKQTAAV
T5 sequence (P24387 whole entry): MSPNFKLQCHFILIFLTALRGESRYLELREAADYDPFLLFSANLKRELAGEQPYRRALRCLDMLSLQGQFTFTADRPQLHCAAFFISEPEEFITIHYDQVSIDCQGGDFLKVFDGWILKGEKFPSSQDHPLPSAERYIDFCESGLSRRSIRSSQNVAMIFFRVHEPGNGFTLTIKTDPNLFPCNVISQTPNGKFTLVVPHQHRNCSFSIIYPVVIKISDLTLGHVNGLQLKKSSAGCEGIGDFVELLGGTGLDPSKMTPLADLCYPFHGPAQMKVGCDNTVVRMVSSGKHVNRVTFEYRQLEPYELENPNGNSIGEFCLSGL

[5] = mitochondrial function rescue without frataxin homolog – Friedreich's ataxia, plus single-dose screen, dose response (AID 1465); format: functional;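 note: yeast depleted of Yfh1p frataxin homolog grown on glycerol needing respiration; WST-1 tetrazolium dye reduction as measure of cellular dehydrogenase metabolic activity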
[6] = target: T6, Tyrosine-protein phosphatase non-receptor type 7 (Homo sapiens, UniProt P35236); experiment: HePTP tyrosine phosphatase activity blockers – biochemical, absorbance, leukemia target, primary screen (AID 521); format: functional
T6 sequence (P35236 whole entry): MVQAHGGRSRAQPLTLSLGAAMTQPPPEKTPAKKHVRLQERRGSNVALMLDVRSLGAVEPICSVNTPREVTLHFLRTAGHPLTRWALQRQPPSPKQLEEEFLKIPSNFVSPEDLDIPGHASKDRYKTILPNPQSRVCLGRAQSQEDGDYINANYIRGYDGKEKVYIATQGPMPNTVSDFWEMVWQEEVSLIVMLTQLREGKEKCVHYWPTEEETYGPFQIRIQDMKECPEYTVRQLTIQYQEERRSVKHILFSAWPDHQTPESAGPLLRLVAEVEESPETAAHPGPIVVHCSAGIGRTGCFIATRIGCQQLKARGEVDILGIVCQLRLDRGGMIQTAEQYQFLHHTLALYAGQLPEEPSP

[7] = HPDE-C7 pancreatic duct cell viability loss – fluorescence, HTS (AID 430); format: functional, cell-based; conditions: Homo sapiens
[8] = viability loss of HPDE-C7K cells – cell-based, fluorescence, HTS, primary screen (AID 431); format: functional; conditions: Homo sapiens
Cytochrome P450 2C19 = Cytochrome P450 2C19 (Homo sapiens, UniProt P33261); experiment: Cytochrome panel assay with activity outcomes. Panel member name: p450-cyp2c19 Compounds with AC50 equal or less than 10 uM are considered active; format: functional; conditions: read-out: AC50
Paired box protein Pax-8 = Paired box protein Pax-8 (Homo sapiens, UniProt Q06710); experiment: PAX8 transcriptional activity inhibition in RMG-I – RMG-I cells, luciferase, cherry-pick, dose response (AID 687027); format: functional, cell-based;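 note: luciferase reporter driven by Pax8 target thyroperoxidase promoter measured by SteadyGlo luminescence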
[9] = OVCAR-3 cell viability loss – plate reader, dry powder samples, PAX8 inhibitor project, dose response (AID 743044); format: functional, cell-based
[10] = P. falciparum Dd2 growth inhibitors, dose response, SYBR Green, cherry-picked samples (AID 1159567); format: functional, cell-based
[11] = toxicity to human hepatoma HepG2 cells – cell-based, cherry-picked samples, cytotoxicity control, dose response (AID 1159577); format: functional

Sequence of Cytochrome P450 2C19 (P33261 whole entry): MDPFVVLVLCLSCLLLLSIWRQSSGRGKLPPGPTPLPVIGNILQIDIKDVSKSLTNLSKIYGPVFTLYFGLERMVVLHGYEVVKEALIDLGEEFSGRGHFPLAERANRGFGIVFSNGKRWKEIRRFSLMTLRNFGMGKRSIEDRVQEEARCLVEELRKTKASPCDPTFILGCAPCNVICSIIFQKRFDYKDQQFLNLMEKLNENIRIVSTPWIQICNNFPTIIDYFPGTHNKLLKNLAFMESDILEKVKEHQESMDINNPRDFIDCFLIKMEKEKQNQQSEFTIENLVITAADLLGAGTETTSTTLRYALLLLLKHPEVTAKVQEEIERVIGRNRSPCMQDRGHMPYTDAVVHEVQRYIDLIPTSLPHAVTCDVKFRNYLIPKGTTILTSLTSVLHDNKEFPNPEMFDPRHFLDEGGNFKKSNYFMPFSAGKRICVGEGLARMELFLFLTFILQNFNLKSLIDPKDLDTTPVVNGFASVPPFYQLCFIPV
Sequence of Paired box protein Pax-8 (Q06710 whole entry): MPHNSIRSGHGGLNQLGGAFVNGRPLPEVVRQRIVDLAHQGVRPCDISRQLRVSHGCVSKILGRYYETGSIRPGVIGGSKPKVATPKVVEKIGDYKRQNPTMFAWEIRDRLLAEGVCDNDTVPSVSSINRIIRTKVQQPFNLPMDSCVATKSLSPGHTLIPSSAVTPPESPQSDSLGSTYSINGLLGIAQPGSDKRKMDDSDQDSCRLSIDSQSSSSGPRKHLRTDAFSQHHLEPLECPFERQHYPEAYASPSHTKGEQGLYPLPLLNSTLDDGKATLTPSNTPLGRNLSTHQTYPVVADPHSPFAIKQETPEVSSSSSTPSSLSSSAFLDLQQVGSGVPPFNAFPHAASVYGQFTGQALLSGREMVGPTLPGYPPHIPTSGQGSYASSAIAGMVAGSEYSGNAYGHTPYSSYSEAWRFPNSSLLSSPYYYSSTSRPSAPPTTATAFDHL

For `Nc1ccc(C(=O)Nc2ccc3c(O)cc(S(=O)(=O)O)cc3c2)cc1`, the IC50 [1] was 4.61 µM (active) and the AC50 (Caspase-6) was 8.79 µM (active).
In the case of `O=[N+]([O-])c1ccc(-c2ccc(/C=N/O)o2)cc1`, the IC50 [2] is reported as > 100 µM (active).
For `O=C([C-](C1=[N+](Cc2ccc(Cl)nc2)CCN1Cc1ccc(Cl)nc1)[N+](=O)[O-])C(Cl)Cl`, the AC50 [3] was 2.03 µM (active), the EC50 (Protein RecA) was 3.48 µM (active) and the EC50 [4] was > 53 µM (inactive). For the same molecule, the AC50 (Caspase-6) was 8.77 µM (active).
In the case of `O=C(COC(=O)C1COc2ccccc2O1)NC(=O)Nc1ccc2c(c1)OCCO2` (stereo not drawn), the IC50 [2] is reported as > 100 µM (active).
In the case of `CN(C)c1ccc(/C=C(/C(=O)c2ccc(Cl)cc2Cl)n2cncn2)cc1`, the EC50 [5] is reported as > 100 µM (active).
For `O=C(NC1CCCCCC1)c1c(F)c(F)c(F)c(F)c1F`, the IC50 [6] was > 100 µM (not active).
With `O=C(OCN1C(=O)c2ccccc2C1=O)c1cccs1` the IC50 [6] was > 100 µM (not active).
With `CC(=O)NC1(c2cccc(F)c2)CCN(CC(=O)NC2CCCCC2)CC1` the EC50 [7] was > 20 µM (not active), the EC50 [8] was > 20 µM (not active) and the AC50 (Cytochrome P450 2C19) was 3.55 µM (inconclusive).
For `COc1cc(NC(=O)C2CCCCN2)ccc1OCC(C)C` (stereo not drawn), the EC50 [7] was > 20 µM (not active) and the EC50 [8] was > 20 µM (not active).
In the case of `O=C(NC1=NCCS1)c1ccc2c(c1)C(=O)N(Cc1ccco1)C2=O`, the IC50 [6] is reported as > 100 µM (not active).
In the case of `O=C(Nc1ccccc1)N1C[C@@H]2N[C@H](C1)[C@@H]2c1ccc(/C=C/c2ccccc2)cc1`, the AC50 (Paired box protein Pax-8) is reported as 22.6 µM (active), the AC50 [9] is reported as 33.5 µM (active) and the AC50 [10] is reported as 1.85 µM (active). For the same molecule, the AC50 [11] was 7.17 µM (active).
With `NS(=O)(=O)c1cccc(NC(=O)c2ccc3[nH]cnc3c2)c1` the IC50 [1] was 7.41 µM (active) and the AC50 (Caspase-6) was 17.3 µM (active).
